Results: US8524917B2, “6-substituted indole-3-carboxylic acid amide compounds having sphingosine-1-phosphate (S1P) receptor antagonist biological activity” (Allergan, Inc., priority 2007, dated 2013)
Like-named read-outs stand apart in the source and are kept apart here.

What was measured:
perfused porcine eyes = settings: by altering paracellular permeability, IOVS 45, 2263, 2004; cited from earlier work
human S1P3 receptor = human S1P3 receptor (Homo sapiens (Human), UniProt Q99500); assay: Activation or block of activation of human S1P3 receptor, Ca+2 FLIPR assay; format: cell-based
Sequence of human S1P3 receptor (Q99500 whole entry): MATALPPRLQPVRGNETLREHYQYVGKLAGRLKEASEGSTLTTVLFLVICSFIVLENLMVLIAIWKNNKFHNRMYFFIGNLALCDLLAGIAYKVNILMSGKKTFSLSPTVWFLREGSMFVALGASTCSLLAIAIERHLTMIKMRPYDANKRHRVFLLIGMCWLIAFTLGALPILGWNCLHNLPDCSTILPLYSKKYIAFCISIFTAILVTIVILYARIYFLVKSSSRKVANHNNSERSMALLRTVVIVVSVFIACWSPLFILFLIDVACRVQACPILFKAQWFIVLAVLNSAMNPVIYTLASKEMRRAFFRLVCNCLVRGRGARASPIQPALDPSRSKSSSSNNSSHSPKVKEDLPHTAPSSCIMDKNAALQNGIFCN
Procedure, shortened: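 T24 cells stably expressing human S1P3, grown in charcoal-treated FBS, dye-loaded and read on FLIPR for calcium after ligand addition in HBSS/20 mM HEPES (1 s readings for 75 s, then every 10 s for 2.5 min). Agonist or antagonist mode; S1P positive control in 4 mg/ml fatty-acid-free BSA. IC50 by Levenberg–Marquardt regression.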

| SMILES | decrease of outflow facility (perfused porcine eyes) [%] | S1P3 (% inh) (human S1P3 receptor) | IC50 (human S1P3 receptor; read-out: S1P3 IC50) [nM] | IC50 (human S1P3 receptor) [nM] |
| --- | --- | --- | --- | --- |
| CCCCCCCCCCCCC/C=C/[C@@H](O)[C@@H](N)COP(=O)(O)O [Compound S1P, Sphingosine-1-Phosphate] | > 30 | – | – | – |
| CC(C)c1c(C(=O)NCc2ccc(F)c(F)c2)c2ccc(C3=NCCO3)cc2n1Cc1ccccc1 [Compound 70, 1-Benzyl-N-(3,4-difluorobenzyl)-6-(4,5-dihydrooxazol-2-yl)-2-isopropyl-1H-indole-3-carboxamide] | – | 36 nM (100) % | 36 | – |
| CCOC(=O)c1ccc2c(C(=O)NCc3cccnc3)c(C(C)C)n(Cc3ccccc3)c2c1 | – | 187 nM (95) % | – | 187 |
